Measurements reported in patent US20180008572A1, “ANTIMETASTATIC COMPOSITION COMPRISING AT LEAST ONE FLAVANOL-TYPE COMPOUND” (priority 2014, published 2018).

How the values were obtained:
[1] = test system: SiHa-F3 cells; assay: Tumor cell migration in a Boyden chamber; format: cell-based, human; conditions: for migration of the cancer cells (% of the control): Boyden chamber, 16 h, 100 nM to 1 mM
Method: Tests of cell migration and of survival of the treated cells were carried out with a model of super-invasive tumor cells obtained from a human cervical adenocarcinoma cell line, SiHa. The selection of the super-invasive SiHa-F3 cells (F3 on the graphs) was carried out after three consecutive invasions in vitro in permeable supports of Transwell® type coated with Matrigel® (Porporato P E et al., Cell Rep 2014, 8:754-766). […] The actual migration of the tumor cells was measured in a Boyden chamber with 50 000 cells per well and 0.15% of fetal bovine serum (FBS) used as chemoattractant. The pore diameters of the porous membrane separating the two compartments of the Boyden chamber were fixed at 8 μm. After 16 hours of migration, the cells were first fixed with methanol for 3 min and then stained with crystal violet. The culture medium used was DMEM 4.5 g/l of glucose, GlutaMAX®, 1% of a solution of penicillin/streptomycin and 10% of fetal bovine serum. Cell migration measurements: A 48-well reusable Boyden chamber (Neuroprobe) was used according to the manufacturer's instructions. Briefly, medium containing 0.15% of fetal bovine serum served as chemoattractant in the lower compartment, a polycarbonate membrane pierced with pores 8 μm in diameter separated the two compartments, and 50 000 SiHa-F3 cells in suspension in the presence of the indicated compounds were introduced into the upper compartment. The migration of the cells was quantified after an overnight period (16 h). The cells, having migrated, were fixed for 3 min in methanol, stained with 0.23% crystal violet for 30 min, and counted on photographs taken at a magnification of ×2.5 using an inverted-phase microscope (Axiovert and Mrc camera, Zeiss). […] Results were expressed as % of the control.

[2] = test system: B16F10 murine melanoma cells; assay: Model of experimental lung metastases: pretreated B16F10 cells injected into the caudal vein; format: in vivo, C57BL/6 mice; conditions: B16F10 cells pretreated with rotenone 10 nM + 10 μM compound, 14 days after injection
Excerpt: The B16F10 tumor cells come from the ATCC collection. The male 6- or 7-week-old C57BL/6 mice were acquired from the Janvier laboratories, and the protocols were applied with the agreement of the UCL ethics committee and while adhering to Belgian laws relating to animal care. Model of experimental metastases: the B16F10 cells were pretreated with DMSO (0.5%, rotenone carrier, negative control) or rotenone (respiratory chain complex I inhibitor and mitochondrial superoxide inducer as described in Porporato P E et al., Cell Rep 2014, 8:754-766, positive control), alone or in combination with the indicated compounds for 6 h. The cells were then detached, counted and resuspended in a proportion of 10×10^6 cells/ml in HBSS without calcium or magnesium. 10^6 cells (i.e. 100 μl of the suspension) were then injected into the caudal vein of C57BL/6 mice. 14 days after injection of the cells, the mice were sacrificed, the lungs were isolated and the metastases (spots positive for melanin) were counted under a dissection microscope.

[3] = test system: SiHa-F3 cells; assay: Cell survival of SiHa-F3 tumor cells (crystal violet or MTT); format: cell-based, human; conditions: 1 μM
Method: Tests of cell migration and of survival of the treated cells were carried out with a model of super-invasive tumor cells obtained from a human cervical adenocarcinoma cell line, SiHa. The selection of the super-invasive SiHa-F3 cells (F3 on the graphs) was carried out after three consecutive invasions in vitro in permeable supports of Transwell® type coated with Matrigel® (Porporato P E et al., Cell Rep 2014, 8:754-766).
The cell survival, in order to exclude any toxic effect of the products tested, was estimated either on the basis of the quantification of the cells stained with crystal violet, or by measuring the mitochondrial succinate dehydrogenase (SDH) activity on the reduction of the MTT tetrazolium salt (suspension of formazan obtained in DMSO and measurement of absorbance at 570 nm).
Measurement of cell viability: 20 000 SiHa-F3 cells were seeded and treated with the indicated compounds overnight (16 h). The cells were then fixed for 3 min with methanol, stained with 0.23% crystal violet, and resuspended in DMSO in order to measure the absorbance at 595 nm (Victor X4 spectrophotometer, Perkin Elmer); or alternatively incubated for 3 h at 37° C. in a saturating solution of MTT in HBSS containing 10 mM of HEPES, and resuspended in DMSO in order to measure the absorbance at 630 nm (Victor X4 spectrophotometer, Perkin Elmer). […]

[4] = test system: SiHa-F3 cells; assay: Level of reactive oxygen species (ROSs), DCFDA technique; format: cell-based, human; conditions: 1 μM, 60 minutes of pretreatment
Method: Moreover, an evaluation of the impact of the products tested on the level of reactive oxygen species (ROSs) observed was carried out according to the DCFDA technique after 60 minutes of pretreatment of the SiHa-F3 metastatic progenitor cells with the products tested. Measurement of total cell ROSs: 20 000 SiHa-F3 cells were seeded before being treated for 1 h with the compounds indicated. The cells were then incubated for 30 min at 37° C. in a 1 μM solution of H2-DCFDA (Invitrogen) in HBSS containing 10 mM of HEPES, before measurement of the absorbance at 535 nm (Victor X4 spectrophotometer, Perkin Elmer).

[5] = compared with epigallocatechin-3-gallate (EGCG); cited from earlier work
[6] = test system: melanoma cells; conditions: mice having received cancer cells by intravenous injection; cited from earlier work

O=C(O[C@@H]1Cc2c(O)cc(O)cc2O[C@@H]1c1cc(O)c(O)c(O)c1)c1cc(O)c(O)c(O)c1 [epigallocatechin gallate]
migration of the cancer cells (% of the control) [1]: inhibit the migration of the cancer cells
formation of lung metastases [2]: not Epigallocatechin Gallate Reduces the Formation of Lung Metastases

Oc1cc(O)c2c(c1)O[C@H](c1ccc(O)c(O)c1)[C@@H](O)C2 [(+)-catechin]
survival of the tumor cells [3]: does not affect the survival of the tumor cells
reduction in the level of reactive oxygen species (ROSs) produced by the cells [4]: no impact
decrease in the number of tumor cells migrating from one compartment to the other of the Boyden cell ([1]; 1 μM, 16 hours of migration): does not however make it possible to significantly decrease
migration of the cancer cells (% of the control) [1]: not the (+)-catechin, inhibit the migration of the cancer cells
anti-proliferative effect [5]: negligible
melanoma cell invasion [6]: inhibited
